Tests used:
[1] = test system: HUMAN RSV-A (“LONG” STRAIN); experiment: RSV-A assay (CPE, ATPlite) in Hep-2 cells; type: cell-based; conditions: human respiratory syncytial virus, 120 h, MOI 0.1, 5-day incubation
Outline: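 Hep-2 cells (8,000/well) given 2-fold serial compound dilutions in duplicate, then infected with RSV-A Long strain at MOI 0.1. After 5 days, virus-induced cytopathic effect quantified as cellular ATP by ATPlite luminescence, against virus-only and uninfected controls; EC50 reported in ranges.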

[2] = test system: hMPV A2 TN/94-49; experiment: HMPV antiviral assay Method 1 (LLC-MK2 cells, ATP-Lite); type: cell-based; conditions: hMPV A2 TN/94-49, LLC-MK2 cells
Protocol: In vitro HMPV antiviral activity was evaluated using the clinical isolate A2 strain TN 94-49 (obtained from Dr. John Williams, Vanderbilt University, Tennessee) and […] cells (ATCC #CCL-7), an immortalized kidney epithelial cell line from Macaca mulatta. Compounds were resuspended in dimethyl sulfoxide (DMSO) at 10 mM, serially diluted and added to a 384-well source plate. Subsequently, the compounds were diluted and transferred onto 384-well assay plates using the Echo-650 automated liquid handling system (Beckman Coulter, Indiana). The test compounds were assessed in duplicate at a top concentration of 2 μM followed by 2.5-fold serial dilutions to give a total of 10 concentration points. DMSO control wells were also included on the assay plates and were either infected or not, acting as positive and negative controls. A2 TN 94-49 virus infections were performed in-suspension with LLC-MK2 cells. The cells were washed twice with PBS and removed from the cell-culture flask with 0.25% trypsin-EDTA (Thermo Fisher Scientific, MA). The trypsin-EDTA was inactivated by resuspending in 2% fetal bovine serum (FBS) and OptiMEM (ThermoFisher Scientific, MA) containing 1% penicillin-streptomycin. Cells were pelleted by centrifuging for 5 minutes at 800 rpm, the supernatant was removed, and cells were re-suspended and washed in PBS plus 100 μg/mL CaCl2). This step was performed twice. Cells were then re-suspended in serum-free (SF)-OptiMEM containing 4 μg/mL TPCK-Trypsin (Sigma Aldrich, MO), 1% penicillin-streptomycin (ThermoFisher Scientific, MA) and 100 μg/mL CaCl2). Cells were counted and seeded at a density of 5,000 cells/well, 12.5 μL/well. Virus infections were done at a multiplicity of infection (MOI) of 0.005 with 12.5 μL added per well. Virus infections were performed in infection media which contained SF-OptiMEM, 100 μg/mL CaCl2) and 1% penicillin-streptomycin. HMPV viral stocks are suspended in infection media+5% glycerol, thus an equal volume of infection media+5% glycerol was added to uninfected wells to equalize the final % glycerol across all wells of the assay plate. The final concentration of TPCK-trypsin was 2 μg/mL. The assay plates were incubated at 37° C., 5% CO2 for 7 days. After 7 days incubation, 12.5 μL of ATP-Lite (PerkinElmer, MA) was added to each well and the raw luminescence values were determined using the Envision 2104 (Perkin Elmer, MA). The average of the raw luminescence values for the cells and virus only positive control wells was subtracted from all conditions tested and the percent cell health was determined by dividing these values by the average of the cells only negative control wells. EC50 values were then calculated by non-linear regression using a four-parameter curve logistic equation. The curve fit model employed was XLFit Dose Response One Site Model 200: y=(A+(B/(1+((x/C)^D)))), where A is the minimum y value, B is the maximum y value, C is the log EC50value, and D is the slope factor. Method 2: In Vitro HMPV Antiviral Activity was Evaluated Using the Clinical Isolate A2 Strain TN 94-49

Row | Compound | EC50 [1] | EC50 [2]
1 | [2H]C([2H])([2H])c1nc2c(OC)cc(C(=O)NC[C@](O)(c3cc4c(c(-c5cc(Cl)c(F)cc5F)n3)OC[C@]4(C)C(N)=O)C3CC3)cc2s1 [Example 10] | < 200 nM | < 500 nM
2 | COc1cc(C(=O)NC[C@@](O)(c2ccccc2)c2cc3c(c(-c4ccc(F)c(Cl)c4Cl)n2)OC[C@]3(C)C(N)=O)cc2cn(C3CC3)nc12 [Example 257] | < 200 nM | < 500 nM
3 | COc1cc(C(=O)NC[C@](O)(c2cc3c(c(-c4cc(Cl)c(F)cc4F)n2)OC[C@]3(C)C(N)=O)c2ccccc2F)cc2cc(C3CC3)nn12 [Example 137] | < 200 nM | < 500 nM
4 | COc1cc(C(=O)NC[C@@](O)(c2ccccc2)c2cc3c(c(-c4cc(Cl)c(F)cc4F)n2)OC[C@]3(C)C(N)=O)cc2cc(Cl)c(C)nc12 [Example 159] | < 200 nM | < 500 nM
5 | C[C@]1(C(N)=O)COc2c1cc([C@@](O)(CNC(=O)c1cc(OC(F)F)c3nn(C4CC4)cc3c1)C1CC1)nc2-c1cc(F)c(F)cc1F [Example 6] | < 200 nM | < 500 nM
6 | [2H]C([2H])([2H])c1nc2c(OC)cc(C(=O)NC[C@@](O)(c3cccc(OC)c3)c3cc4c(c(-c5cc(Cl)c(F)cc5F)n3)OC[C@]4(C)C(N)=O)cc2s1 [Example 163] | < 200 nM | < 500 nM
7 | [2H]C([2H])([2H])c1nc2c(OC)cc(C(=O)NC[C@@](O)(c3ccsc3)c3cc4c(c(-c5cc(Cl)c(F)cc5F)n3)OC[C@]4(C)C(N)=O)cc2s1 [Example 176] | < 200 nM | < 500 nM
8 | COc1cc(C(=O)NC[C@@](O)(c2cc3c(c(-c4cc(Cl)c(F)cc4F)n2)OC[C@]3(C)C(N)=O)c2cnn[nH]2)cc2cn(C3CC3)nc12 [Example 181] | > 200 nM | > 500 nM
9 | C[C@]1(C(N)=O)COc2c1cc([C@@](O)(CNC(=O)c1ccc3nc(N)sc3c1)c1ccccc1)nc2-c1ccc2c(c1Cl)OC(F)(F)O2 [Example 256] | < 200 nM | < 500 nM
10 | [2H]C([2H])([2H])c1nc2c(OC)cc(C(=O)NC[C@@](O)(c3ccccc3)c3cc4c(c(-c5ccc(F)c(Cl)c5Cl)n3)OC[C@]4(C)C(N)=O)cc2s1 [Example 273] | < 200 nM | < 500 nM
11 | COc1cc(C(=O)NC[C@@](O)(c2cccc(F)c2)c2cc3c(c(-c4ccc5c(c4Cl)OC(F)(F)O5)n2)OC[C@]3(C)C(N)=O)cc2cn(C3CC3)nc12 [Example 274] | < 200 nM | < 500 nM
12 | [2H]C([2H])([2H])c1nc2c(OC)cc(C(=O)NC[C@@](O)(c3ccccc3)c3cc4c(c(-c5cc(Cl)c(F)cc5F)n3)OC[C@]4(C)C(N)=O)cc2s1 [Example 155] | < 200 nM | < 500 nM
13 | [2H]C([2H])([2H])c1nc2c(OC(F)F)cc(C(=O)NC[C@](O)(c3cc4c(c(-c5cc(Cl)c(F)cc5F)n3)OC[C@]4(C)C(N)=O)C3CC3)cc2cc1Br [Example 11] | < 200 nM | > 500 nM
14 | COc1cc(C(=O)NC[C@](O)(c2cc3c(c(-c4cc(Cl)c(F)cc4F)n2)OC[C@]3(C)C(N)=O)C2CC2)cc2cc(C(F)(F)F)cnc12 [Example 1] | < 200 nM | > 500 nM
15 | COc1ccc([C@](O)(CNC(=O)c2cc(OC)c3nn(C(F)F)cc3c2)c2cc3c(c(-c4cc(Cl)c(F)cc4F)n2)OC[C@]3(C)C(N)=O)cc1 [Example 167] | < 200 nM | < 500 nM
16 | [2H]C([2H])([2H])c1nc2c(OC)cc(C(=O)NC[C@@](O)(c3ccc(F)cc3)c3cc4c(c(-c5ccc6c(c5Cl)OC(F)(F)O6)n3)OC[C@]4(C)C(N)=O)cc2s1 [Example 27] | < 200 nM | < 500 nM
17 | COc1cc(C(=O)NC[C@](O)(c2cc3c(c(-c4cc(Cl)c(F)cc4F)n2)OC[C@]3(C)C(N)=O)c2ccccc2F)cc2cn(C(F)F)nc12 [Example 138] | < 200 nM | < 500 nM
18 | COc1cc(C(=O)NCC(O)(c2csc(Cl)c2)c2cc3c(c(-c4cc(Cl)c(F)cc4F)n2)OC[C@]3(C)C(N)=O)cc2cn(C3CC3)nc12 (stereo partly drawn) [Example 471] | < 200 nM | < 500 nM

— patent US12358921B2, “Antiviral heterocyclic compounds” (priority 2022, dated 2025)
